# Results: ChEMBL document CHEMBL1687856, “Oroidin inhibits the activity of the multidrug resistance target Pdr5p from yeast plasma membranes” (J Nat Prod, 2011)
# Active and inactive are the calls of the source. No cut-off for these calls is given here.
# Assays:
# Saccharomyces cerevisiae [1] = assay: Inhibition of Pdrp5-mediated rhodamine 6G accumulation in Saccharomyces cerevisiae AD124567 at 20 uM after 2 hrs by fluorescence microscopic analysis
# Saccharomyces cerevisiae [2] = assay: Inhibition of Prdp5 in Saccharomyces cerevisiae AD124567 assessed as inhibition of glucose-dependent rhodamine 6G efflux after 2 hrs at 100 uM by fluorescence microscopy
# [3] = Inhibition of Pdr5p-dependent ATPase activity in Saccharomyces cerevisiae AD124567 assessed as release of inorganic phosphate after 60 mins […]
# Saccharomyces cerevisiae [4] = assay: Inhibition of Prdp5 in Saccharomyces cerevisiae AD124567 assessed as inhibition of glucose-dependent rhodamine 6G efflux after 13 mins at 200 uM by spectrofluorimetry in presence of 2-deoxyglucose treated for 30 mins before compound addition
# Saccharomyces cerevisiae [5] = assay: Antimicrobial activity against Pdrp5 overexpressing Saccharomyces cerevisiae AD124567 assessed as growth yield reduction at 200 uM after 48 hrs by chemosensitization assay; assay type: functional; conditions: AD124567, 48 h, read-out: GI
# Saccharomyces cerevisiae [6] = assay: Inhibition of Prdp5 in Saccharomyces cerevisiae AD124567 assessed as inhibition of glucose-dependent rhodamine 6G efflux after 13 mins by spectrofluorimetry in presence of 2-deoxyglucose treated for 30 mins before compound addition
# [7] = Inhibition of Pdr5p-dependent UTPase activity in Saccharomyces cerevisiae AD124567 assessed as release of inorganic phosphate after 60 mins […]
# Saccharomyces cerevisiae [8] = assay: Antimicrobial activity against Saccharomyces cerevisiae AD124567 assessed as growth yield reduction at 200 uM after 48 hrs by chemosensitization assay; conditions: AD124567, 48 h, read-out: GI
inhibition (Saccharomyces cerevisiae [1]),Compound,inhibition (Saccharomyces cerevisiae [2]),IC50 [3] [µM],inhibition (Saccharomyces cerevisiae [4]) [%],inhibition of growth at 200 µM (Saccharomyces cerevisiae [5]) [%],inhibition (Saccharomyces cerevisiae [6]),IC50 [7] [µM],inhibition of growth at 200 µM (Saccharomyces cerevisiae [8]) [%]
Active,C=CC[C@@H]1/C=C(\C)C[C@H](C)C[C@H](OC)[C@H]2O[C@@](O)(C(=O)C(=O)N3CCCC[C@H]3C(=O)O[C@H](/C(C)=C/[C@@H]3CC[C@@H](O)[C@H](OC)C3)[C@H](C)[C@@H](O)CC1=O)[C@H](C)C[C@@H]2OC,,,,,,,
,Nc1ncc(/C=C/CNC(=O)c2cc(Br)c(Br)[nH]2)[nH]1 [OROIDIN],Active,20,60,30,Dose-dependent effect,13,30
